The source of these data is patent publication US5053336A, “Monoclonal antibodies for the separate detection of halodeoxyuridines and method for their use” (Regents of the University of California, priority 1989, dated 1991).

The test deals with monoclonal antibody Br-3 (IgG1, kappa; hybridoma ATCC deposit). The experiment in a line: competition ELISA (c-ELISA), specificity of antibody for halogenated deoxyuridines. The class given is binding, mouse (SJL/Jax). An excerpt: A competition enzyme-linked immunosorbent assay (c-ELISA) wa developed to assess the specificity of the antibody for halogenated deoxyuridines by the method of Stanker, et al. (1986) described previously. The competition ELISA data was normalized using 100% activity as the optical density in wells in which antibody was bound to the solid phase antigen (BSA-hapten) in the absence of any competitor. The test wells, each containing different amounts of competitor, were normalized to the 100% activity wells. Percent inhibition was calculated by subtracting the normalized percent binding activity from 100. A smaller I50 value indicates a higher relative affinity of the antibody for the compound. I50 values were estimated graphically from competition ELISA data. When 50% inhibition could not be attained, the value of the highest level of competitor tested is reported. Competition binding data for antibodies reactive with brominated nucleoside analogs are shown in FIG. 1, and the values represent the averages from at least 12 independent assays.
The concentration of IdUMP which causes a 50% binding inhibition to monoclonal antibody Br-3 is 100 times greater for IdUMP than with BrdUMP.
(In an ELISA, binding on a coated surface is turned into a signal by an enzyme label.)

Turning to `O=c1[nH]c(=O)n([C@H]2C[C@H](O)[C@@H](COP(=O)(O)O)O2)cc1I` [IdUMP, 5-iodo-2'-deoxyuridine-5-monophosphate], the “concentration which causes a 50% binding inhibition (I50), relative to BrdUMP” value (I50 of IdUMP compared with I50 of BrdUMP, FIG. 1, averages of at least 12 assays) amounted to 100 times.

Consider `Cc1cn([C@H]2C[C@H](O)[C@@H](COP(=O)(O)O)O2)c(=O)[nH]c1=O` [dTMP, deoxythymidine-5-monophosphate], for which the IC50 (50% inhibition not attained at the highest level of competitor tested, read-out: concentration for 50% binding inhibition (I50)) is greater than 100 µM.

Turning to `O=c1[nH]c(=O)n([C@H]2C[C@H](O)[C@@H](COP(=O)(O)O)O2)cc1F` [fluorinated deoxyuridine analog, 5-fluoro-2'-deoxyuridine-5-monophosphate], the “Br-3 binding (competition ELISA)” value (compared with the iodinated analog, FIG. 1) is given as “comparable to that of the iodinated analog”.
